Patent US10064873B2, “Compounds and compositions for treating HIV with derivatives of Betulin” (GlaxoSmithKline LLC, priority 2011, dated 2018)
Like-named read-outs stand apart in the source and are kept apart here.

Columns and labels:
HIV-1 (strain IIIB) = assay: MT4 Cell Antiviral Assay (propidium iodide or MTS readout); type: cell-based; details: Human immunodeficiency virus 1, IIIB, read-out: expected range of IC50 values (control and standard)
[1] = test system: NL4-3 strain with V370A site directed mutant polymorphism; assay: MT4 antiviral assay, NL4-3 strain with V370A site directed mutant polymorphism; type: cell-based, HIV-1; details: Human immunodeficiency virus 1, NL43, MT4 cells
HIV [2] = details: cited from earlier work
HIV-1 strain JR-CSF = assay: Modified PBMC (PBL) assay with human serum titration; type: cell-based; details: for IC50: Human immunodeficiency virus 1, PBMC
Method: In this assay, 8×10^6 cells from pooled donors were incubated with virus for 1 hour, followed by centrifugation for 1 hour. Cells were then gently re-suspended and incubated an additional 2 hours.

HIV [3] = assay: Standard PBMC assay (0% human serum); type: cell-based; details: Human immunodeficiency virus 1, PBMC, 168 h, PBMCs, 7 days
Method: Following incubation in both the standard and modified assays, supernatants were assayed for reverse transcriptase (RT) activity and p24 antigen content by ELISA and spectrophotometric analysis at 450 nM.

HIV NL4-3 wt = assay: MT4 antiviral assay, NL4-3 strain wild type; type: cell-based, HIV-1
[4] = Human immunodeficiency virus 1, NL43, MT4 cells, read-out: EC50 NL4-3 wt
[5] = Human immunodeficiency virus 1, NL43, MT4, read-out: EC50 NL4-3 wt (nM)

**Q.** With `Cc1cn([C@H]2C[C@H](N=[N+]=[N-])[C@@H](CO)O2)c(=O)[nH]c1=O` [3′-azido-3′-deoxythymidine] as the compound, how does the IC50 (HIV-1 (strain IIIB)) read?
**A.** Its IC50 is 40 to 120 nM.

**Q.** Which results are given for `C=C(C)[C@@H]1CC[C@]2(C(=O)O)CC[C@]3(C)[C@H](CC[C@@H]4[C@@]5(C)CC[C@H](OC(=O)CC(C)(C)C(=O)O)C(C)(C)[C@@H]5CC[C@]43C)[C@@H]12` [Bevirimat]?
**A.** EC50 ([1]; read-out: EC50, MT4 antiviral assay NL4-3 strain with V370A polymorphism): 6060 nM; EC50 ([1]; read-out: MT4 NL. V370A EC50): 6060 nM; Cmin target (HIV [2]; clinical, McCallister et al. poster 2008): > 20000 ng/mL; mean reduction of HIV viral load (HIV [2]; patients with trough levels >=20 μg/mL and no baseline Gag polymorphisms at Q369, V370 or T371): 1.3 log10/mL; effect of human serum on IC50 values (HIV-1 strain JR-CSF; 10-40% human serum vs standard assay): large increase in the IC50 values; IC50 (HIV-1 strain JR-CSF; 10%, 20%, 30% and 40% human serum, unit mM, read-out: IC50 in the presence of human serum): 1380 to 13000 nM; fold change in the IC50 value in the presence of 100% serum (HIV-1 strain JR-CSF; extrapolated, compared to control experiment): 2,310 fold; IC50 (HIV [3]): 9.76 nM; EC50 (HIV NL4-3 wt; Human immunodeficiency virus 1, NL43, MT4 cells, Consensus Clade B Sp1 Genotype, read-out: MT4 NL. wt* EC50): 223 nM; EC50 (HIV NL4-3 wt; Human immunodeficiency virus 1, NL43, MT4 cells, read-out: EC50, MT4 antiviral assay NL4-3 strain / HIV wild type potency): 223 nM

**Q.** For `CC(C)C1=C2[C@H]3CC[C@@H]4[C@@]5(C)CC[C@H](OC(=O)CC(C)(C)C(=O)O)C(C)(C)[C@@H]5CC[C@@]4(C)[C@]3(C)CC[C@@]2([C@@H](O)CN(CCN(C)C)Cc2ccc(Cl)cc2)CC1=O` [Compound 51, 4-(((3aR,5aR,5bR,7aR,9S,11aR,11bR,13aS)-3a-((R)-2-((4-Chlorobenzyl)(2-(dimethylamino)ethyl)amino)-1-hydroxyethyl)-1-isopropyl-5a,5b,8,8,11a-pentamethyl-2-oxo-3,3a,4,5,5a,5b,6,7,7a,8,9,10,11,11a,11b,12,13,13a-octadecahydro-2H-cyclopenta[a]chrysen-9-yl)oxy)-2,2-dimethyl-4-oxobutanoic acid], which IC50 (HIV-1 strain JR-CSF; read-out: estimated IC50 for 100% human serum, linear extrapolation from normalized IC50 values) is on record?
**A.** Its IC50 is 0.33 nM.

**Q.** And the IC50 (HIV-1 strain JR-CSF; 10%, 20%, 30% and 40% human serum, read-out: IC50 in the presence of human serum)?
**A.** Its IC50 is 0.52 to 3.07 nM.

**Q.** With `CC(C)C1=C2[C@H]3CC[C@@H]4[C@@]5(C)CC[C@H](OC(=O)CC(C)(C)C(=O)O)C(C)(C)[C@@H]5CC[C@@]4(C)[C@]3(C)CC[C@@]2([C@H](O)CN(CCN(C)C)Cc2ccc(Cl)cc2Cl)CC1=O` [Example 74, 4-(((3aR,5aR,5bR,7aR,9S,11aR,11bR,13aS)-3a-((S)-2-((2,4-dichlorobenzyl)(2-(dimethylamino)ethyl)amino)-1-hydroxyethyl)-1-isopropyl-5a,5b,8,8,11a-pentamethyl-2-oxo-3,3a,4,5,5a,5b,6,7,7a,8,9,10,11,11a,11b,12,13,13a-octadecahydro-2H-cyclopenta[a]chrysen-9-yl)oxy)-2,2-dimethyl-4-oxobutanoic acid] as the compound, how does the EC50 (HIV NL4-3 wt; [4]) read?
**A.** The EC50 was 2.9 nM.

**Q.** For `CC(C)C1=C2[C@H]3CC[C@@H]4[C@@]5(C)CC[C@H](OC(=O)CC(C)(C)C(=O)O)C(C)(C)[C@@H]5CC[C@@]4(C)[C@]3(C)CC[C@@]2([C@@H](O)CN(CCN(C)C)Cc2ccc(F)cc2)CC1=O` [Example 76, 4-(((3aR,5aR,5bR,7aR,9S,11aR,11bR,13aS)-3a-((R)-2-((2-(dimethylamino)ethyl)(4-fluorobenzyl)amino)-1-hydroxyethyl)-1-isopropyl-5a,5b,8,8,11a-pentamethyl-2-oxo-3,3a,4,5,5a,5b,6,7,7a,8,9,10,11,11a,11b,12,13,13a-octadecahydro-2H-cyclopenta[a]chrysen-9-yl)oxy)-2,2-dimethyl-4-oxobutanoic acid], which EC50 (HIV NL4-3 wt; [4]) is on record?
**A.** The EC50 was 0.7 nM.

**Q.** With `CC(C)C1=C2[C@H]3CC[C@@H]4[C@@]5(C)CC[C@H](OC(=O)CC(C)(C)C(=O)O)C(C)(C)[C@@H]5CC[C@@]4(C)[C@]3(C)CC[C@@]2([C@@H](O)CNCc2ccc(F)cc2)CC1=O` [Example 77, 4-(((3aR,5aR,5bR,7aR,9S,11aR,11bR,13aS)-3a-((R)-2-((4-fluorobenzyl)amino)-1-hydroxyethyl)-1-isopropyl-5a,5b,8,8,11a-pentamethyl-2-oxo-3,3a,4,5,5a,5b,6,7,7a,8,9,10,11,11a,11b,12,13,13a-octadecahydro-2H-cyclopenta[a]chrysen-9-yl)oxy)-2,2-dimethyl-4-oxobutanoic acid] as the compound, how does the EC50 (HIV NL4-3 wt; [4]) read?
**A.** Its EC50 is 4.7 nM.

**Q.** For `CC(C)C1=C2[C@H]3CC[C@@H]4[C@@]5(C)CC[C@H](OC(=O)CC(C)(C)C(=O)O)C(C)(C)[C@@H]5CC[C@@]4(C)[C@]3(C)CC[C@@]2([C@H](O)CN(CCN(C)C)Cc2ccc(F)cc2)CC1=O` [Example 78, 4-(((3aR,5aR,5bR,7aR,9S,11aR,11bR,13aS)-3a-((S)-2-((2-(dimethylamino)ethyl)(4-fluorobenzyl)amino)-1-hydroxyethyl)-1-isopropyl-5a,5b,8,8,11a-pentamethyl-2-oxo-3,3a,4,5,5a,5b,6,7,7a,8,9,10,11,11a,11b,12,13,13a-octadecahydro-2H-cyclopenta[a]chrysen-9-yl)oxy)-2,2-dimethyl-4-oxobutanoic acid], which EC50 (HIV NL4-3 wt; [4]) is on record?
**A.** Its EC50 is 2.1 nM.

**Q.** Which EC50 (HIV NL4-3 wt; [4]) does the source give for `CC(C)C1=C2[C@H]3CC[C@@H]4[C@@]5(C)CC[C@H](OC(=O)CC(C)(C)C(=O)O)C(C)(C)[C@@H]5CC[C@@]4(C)[C@]3(C)CC[C@@]2([C@H](O)CNCc2ccc(F)cc2)CC1=O` [Example 79, 4-(((3aR,5aR,5bR,7aR,9S,11aR,11bR,13aS)-3a-((S)-2-((4-fluorobenzyl)amino)-1-hydroxyethyl)-1-isopropyl-5a,5b,8,8,11a-pentamethyl-2-oxo-3,3a,4,5,5a,5b,6,7,7a,8,9,10,11,11a,11b,12,13,13a-octadecahydro-2H-cyclopenta[a]chrysen-9-yl)oxy)-2,2-dimethyl-4-oxobutanoic acid] here?
**A.** Its EC50 is 14.7 nM.

**Q.** Which EC50 (HIV NL4-3 wt; [4]) does the source give for `CC(C)C1=C2[C@H]3CC[C@@H]4[C@@]5(C)CC[C@H](OC(=O)CC(C)(C)C(=O)O)C(C)(C)[C@@H]5CC[C@@]4(C)[C@]3(C)CC[C@@]2([C@@H](O)CN(CCN(C)C)Cc2ccc(Cl)cc2Cl)CC1=O` [Example 80, 4-{[(1R,2R,5R,10S,13R,14R, 17S,19R)-5-[(1R)-2-{[(2,4-dichlorophenyl)methyl][2-(dimethylamino)ethyl]amino}-1-hydroxyethyl]-1,2,14,18,18-pentamethyl-7-oxo-8-(propan-2-yl)pentacyclo[11.8.0.0^ {2,10}.0^{5,9}.0^{14,19}]henicos-8-en-17-yl]oxy}-2,2-dimethyl-4-oxobutanoic acid] here?
**A.** Its EC50 is 2.4 nM.

**Q.** For `CC(C)C1=C2[C@H]3CC[C@@H]4[C@@]5(C)CC[C@H](OC(=O)CC(C)(C)C(=O)O)C(C)(C)[C@@H]5CC[C@@]4(C)[C@]3(C)CC[C@@]2([C@@H](O)CN(CCN(C)C)C(=O)c2ccc(Cl)cc2)CC1=O` [Example 81, 4-{[(1R,2R,5R,10S,13R,14R, 17S,19R)-5-[(1R)-2-[1-(4-chlorophenyl)-N-[2-(dimethylamino)ethyl] formamido]-1-hydroxyethyl]-1,2,14,18,18-pentamethyl-7-oxo-8-(propan-2-yl)pentacyclo[11.8.0.0^ {2,10}.0^{5,9}.0^{14,19}]henicos-8-en-17-yl]oxy}-2,2-dimethyl-4-oxobutanoic acid], which EC50 (HIV NL4-3 wt; [4]) is on record?
**A.** Its EC50 is 3 nM.

**Q.** For `CC(C)C1=C2[C@H]3CC[C@@H]4[C@@]5(C)CC[C@H](OC(=O)CC(C)(C)C(=O)O)C(C)(C)[C@@H]5CC[C@@]4(C)[C@]3(C)CC[C@@]2(CCNCc2ccccc2Cl)CC1=O` [Example 82, 4-{[(1R,2R,5R,10S,13R,14R, 17S,19R)-5-(2-{[(2-chlorophenyl)methyl]amino}ethyl)-1,2,14,18,18-pentamethyl-7-oxo-8-(propan-2-yl)pentacyclo[11.8.0.0^ {2,10}.0^{5,9}.0^{14,19}]henicos-8-en-17-yl]oxy}-2,2-dimethyl-4-oxobutanoic acid], which EC50 (HIV NL4-3 wt; [5]) is on record?
**A.** Its EC50 is 8.9 nM.

**Q.** For `CC(C)C1=C2[C@H]3CC[C@@H]4[C@@]5(C)CC[C@H](OC(=O)CC(C)(C)C(=O)O)C(C)(C)[C@@H]5CC[C@@]4(C)[C@]3(C)CC[C@@]2(CCNC(=O)c2ccccc2)CC1=O` [Example 83, 2,2-dimethyl-4-oxo-4-{[(1R,2R,5R,10S,13R,14R, 17S,19R)-1,2,14,18,18-pentamethyl-7-oxo-5-[2-(phenylformamido)ethyl]-8-(propan-2-yl)pentacyclo[11.8.0.0^ {2,10}.0^{5,9}.0^{14,19}]henicos-8-en-17-yl]oxy)butanoic acid], which EC50 (HIV NL4-3 wt; [5]) is on record?
**A.** The EC50 was 7.3 nM.
